According to US4091202A (Zaidan Hojin Biseibutsu Kagaku Kenkyu Kai, priority 1975, dated 1978):
In brackets after ≈: the same amount, converted by molar mass. Where a name gives a salt, the structure may show the parent alone. Read-outs that look alike come from different tables or passages of the source.

What was measured:
Mycobacterium 607 = test: Minimum inhibitory concentration, serial dilution on nutrient agar; assay type: cell-based; settings: 37° C, 41 hours
Description: (§1) Minimum inhibitory concentrations (mcg/ml) of the new compounds of the invention to various bacteria are estimated according to a standard serial dilution method using nutrient agar as the incubation medium, the incubation being made at 37° C for 41 hours.

[1] = test system: Escherichia coli K-12 MA290 R55; test: as above; assay type: cell-based; settings: for M.I.C.: Escherichia coli K-12 MA290 R55, nutrient agar, 37° C, 41 hours; for MIC: Escherichia coli, K12MA290R55, 41 h
Description: as §1

Shigella sonnei JS11746 = test: as above; assay type: cell-based; settings: 37° C, 41 hours
Description: as §1

[2] = test system: Pseudomonas aeruginosa A3; test: as above; assay type: cell-based; settings: 37° C, 41 hours
Description: as §1

[3] = test system: Klebsiella pneumoniae PCI602; test: as above; assay type: cell-based; settings: 37° C, 41 hours
Description: as §1

[4] = test system: Escherichia coli K-12 JR66/W677; test: as above; assay type: cell-based; settings: for M.I.C.: Escherichia coli K-12 JR66/W677, nutrient agar, 37° C, 41 hours; for MIC: Escherichia coli, K12JR66/W677, 41 h
Description: as §1

[5] = test system: Pseudomonas aeruginosa GN315; test: as above; assay type: cell-based
Description: as §1

[6] = test system: Escherichia coli K-12 W677; test: as above; assay type: cell-based; settings: 41 hours; for M.I.C.: 37° C; for MIC: K12W677, 37° C
Description: as §1

[7] = test system: Escherichia coli K-12 ML-1629; test: as above; assay type: cell-based; settings: 41 hours; for M.I.C.: 37° C; for MIC: K12ML1629, 37° C
Description: as §1

[8] = test system: Staphylococcus aureus FDA 209P; test: as above; assay type: cell-based; settings: for MIC: FDA209P
Description: as §1

[9] = test system: Escherichia coli K-12 R81; test: as above; assay type: cell-based; settings: for M.I.C.: Escherichia coli K-12 R81, nutrient agar, 37° C, 41 hours; for MIC: Escherichia coli, K12R81, 41 h
Description: as §1

Bacillus subtilis PCI219 = test: as above; assay type: cell-based
Description: as §1

Proteus vulgaris OX19 = test: as above; assay type: cell-based; settings: 37° C, 41 hours
Description: as §1

[10] = test system: Escherichia coli K-12 ML-1410; test: as above; assay type: cell-based; settings: 41 hours; for M.I.C.: 37° C; for MIC: K12ML1410, 37° C
Description: as §1

[11] = test system: Pseudomonas aeruginosa No.12; test: as above; assay type: cell-based; settings: 37° C, 41 hours
Description: as §1

Escherichia coli K-12 = test: as above; assay type: cell-based
Description: as §1

mice = settings: for LD50 value: intravenous, mice, six per group, 20% w/v in isotonic sodium chloride solution
in vivo = settings: mouse, iv
Bacillus subtilis = test: Antibacterial potency by cup-assay method; assay type: cell-based; settings: for antibacterial potency: assuming DKB (free base) has 1000 units/mg
[12] = test system: Staphylococcus aureus Smith S-424; test: Therapeutic treatment of bacterial infection in mice (ED50); assay type: in vivo; settings: mice infected i.p. with S. aureus Smith S-424, 27.8 × 10^4 cells, single intramuscular injection immediately after inoculation; for ED50: Staphylococcus aureus, SMITHS424, im
Description: Said inoculum is corresponding to a 860-fold quantity of the LD50 dosage of S.aureus Smith S-424. A solution of the test compound in sterile, isotonic sodium chloride solution was intramuscularly injected into the infected mice once immediately after the inoculation of the bacterium at dosages of 0.1 mg, 0.05 mg, 0.025 mg, 0.0125 mg and 0.0063 mg of the test compound per mouse.

[13] = test system: some kanamycin-resistant bacteria and Pseudomonas aeruginosa; settings: British Patent No. 1,349,302; cited from earlier work
[14] = Pseudomonas aeruginosa GN315, nutrient agar, 37° C, 41 hours
[15] = Staphylococcus aureus FDA 209P, nutrient agar, 37° C, 41 hours
[16] = Bacillus subtilis PCI219, nutrient agar, 37° C, 41 hours
[17] = Escherichia coli K-12, nutrient agar, 37° C, 41 hours
[18] = Pseudomonas aeruginosa GN315, nutrient agar, 37° C, 41 hours, read-out: M.I.C.
[19] = Staphylococcus aureus FDA 209P, nutrient agar, 37° C, 41 hours, read-out: M.I.C.
[20] = Bacillus subtilis PCI219, nutrient agar, 37° C, 41 hours, read-out: M.I.C.

3',4'-Dideoxykanamycin B-di-N-methylmethane-sulfonic acid and its sodium salt
M.I.C. (Mycobacterium 607): 0.39 µg/mL | M.I.C. [1]: 50 µg/mL | M.I.C. (Shigella sonnei JS11746): 0.78 µg/mL | M.I.C. [2]: 0.78 µg/mL | M.I.C. [3]: 0.39 µg/mL | M.I.C. [4]: 50 µg/mL | M.I.C. [5, 14]: > 100 µg/mL | M.I.C. [6]: 0.78 µg/mL | M.I.C. [7]: 0.78 µg/mL | M.I.C. [8, 15]: < 0.2 µg/mL | M.I.C. [9]: 0.78 µg/mL | M.I.C. (Bacillus subtilis PCI219; [16]): < 0.2 µg/mL | M.I.C. (Proteus vulgaris OX19): < 0.2 µg/mL | M.I.C. [10]: 0.78 µg/mL | M.I.C. [11]: 1.56 µg/mL | M.I.C. (Escherichia coli K-12; [17]): 0.78 µg/mL | LD50 value (mice): > 2000 mg/kg

O=S(=O)(O)C(NC[C@@H]1CC[C@@H](NC(c2ccccc2)S(=O)(=O)O)[C@@H](O[C@H]2[C@H](O)[C@@H](O[C@H]3O[C@H](CO)[C@@H](O)[C@H](NC(c4ccccc4)S(=O)(=O)O)[C@H]3O)[C@H](NC(c3ccccc3)S(=O)(=O)O)C[C@@H]2NC(c2ccccc2)S(=O)(=O)O)O1)c1ccccc1 (stereo partly drawn) [3',4'-Dideoxykanamycin B-penta-N-phenylmethanesulfonic acid sodium salt]
MIC (Mycobacterium 607): 0.78 µg/mL | MIC [1]: 100 µg/mL | MIC (Shigella sonnei JS11746): 1.56 µg/mL | MIC [2]: 0.78 µg/mL | MIC [3]: 0.39 µg/mL | MIC [4]: 100 µg/mL | MIC [5, 18]: > 100 µg/mL | MIC [6]: 0.78 µg/mL | MIC [7]: 0.39 µg/mL | MIC [8, 19]: < 0.2 µg/mL | MIC [9]: 0.78 µg/mL | MIC (Bacillus subtilis PCI219; [20]): 0.2 µg/mL | MIC (Proteus vulgaris OX19): 0.39 µg/mL | MIC [10]: 0.78 µg/mL | MIC [11]: 3.12 µg/mL | MIC (Escherichia coli K-12; K12, Escherichia coli K-12, nutrient agar, 37° C, 41 hours, read-out: M.I.C.): 0.78 µg/mL | LD50 (in vivo): > 5000 mg/kg

O=S(=O)(O)CNC[C@@H]1CC[C@@H](NCS(=O)(=O)O)[C@@H](O[C@H]2[C@H](O)[C@@H](O[C@H]3O[C@H](CO)[C@@H](O)[C@H](NCS(=O)(=O)O)[C@H]3O)[C@H](NCS(=O)(=O)O)C[C@@H]2NCS(=O)(=O)O)O1 [DKB-penta-N-methanesulfonic acid Na salt, 3',4'-dideoxykanamycin B-penta-N-methanesulfonic acid sodium salt]
antibacterial potency (Bacillus subtilis): 400 units/mg | MIC [1]: 100 µg/mL | MIC (Shigella sonnei JS11746): 1.56 µg/mL | MIC [3]: 0.39 µg/mL | MIC [4]: 100 µg/mL | MIC [5, 18]: > 100 µg/mL | MIC [7]: 0.39 µg/mL | MIC ([8]; Staphylococcus aureus, 41 h): < 0.2 µg/mL | MIC (Bacillus subtilis PCI219; Bacillus subtilis, PCI219, 41 h): 0.2 µg/mL | MIC (Proteus vulgaris OX19): 0.39 µg/mL | MIC [11]: 3.12 µg/mL | ED50 [12]: 1.9 mg/kg | LD50 (in vivo): > 5000 mg/kg

NC[C@@H]1CC[C@@H](N)[C@@H](O[C@H]2[C@H](O)[C@@H](O[C@H]3O[C@H](CO)[C@@H](O)[C@H](N)[C@H]3O)[C@H](N)C[C@@H]2N)O1 [DKB, 3',4'-dideoxykanamycin B, reference compound]
antibacterial potency (assumed reference value) (Bacillus subtilis; assumed value of the standard): 1000 units/mg | MIC (Mycobacterium 607): 0.39 µg/mL (≈ 0.864 µM) | MIC [1]: 50 µg/mL (≈ 111 µM) | MIC (Shigella sonnei JS11746): 0.78 µg/mL (≈ 1.73 µM) | MIC [2]: 0.78 µg/mL (≈ 1.73 µM) | MIC [3]: 0.39 µg/mL (≈ 0.864 µM) | MIC [4]: 50 µg/mL (≈ 111 µM) | MIC ([5]; Pseudomonas aeruginosa, GN315, 41 h): > 100 µg/mL | MIC [6]: 0.78 µg/mL (≈ 1.73 µM) | MIC [7]: 0.78 µg/mL (≈ 1.73 µM) | MIC [8, 19]: < 0.2 µg/mL | MIC [9]: 0.78 µg/mL (≈ 1.73 µM) | MIC (Bacillus subtilis PCI219; [20]): < 0.2 µg/mL | MIC (Proteus vulgaris OX19): < 0.2 µg/mL | MIC [10]: 0.78 µg/mL (≈ 1.73 µM) | MIC [11]: 1.56 µg/mL (≈ 3.45 µM) | MIC (Escherichia coli K-12; Escherichia coli, K12, 41 h): 0.78 µg/mL (≈ 1.73 µM) | antibacterial activity [13]: high antibacterial activity against some kanamycin-resistant bacteria and Pseudomonas aeruginosa | ED50 [12]: 1.15 mg/kg

3',4'-Dideoxykanamycin B-mono-N-methanesulfonic acid and its sodium salt [DKB-mono-N-methanesulfonic acid Na salt]
M.I.C. (Mycobacterium 607): 0.39 µg/mL | M.I.C. [1]: 50 µg/mL | M.I.C. (Shigella sonnei JS11746): 0.78 µg/mL | M.I.C. [2]: 0.78 µg/mL | M.I.C. [3]: 0.39 µg/mL | M.I.C. [4]: 50 µg/mL | M.I.C. [5, 14]: > 100 µg/mL | M.I.C. [6]: 0.78 µg/mL | M.I.C. [7]: 0.78 µg/mL | M.I.C. [8, 15]: < 0.2 µg/mL | M.I.C. [9]: 0.78 µg/mL | M.I.C. (Bacillus subtilis PCI219; [16]): < 0.2 µg/mL | M.I.C. (Proteus vulgaris OX19): < 0.2 µg/mL | M.I.C. [10]: 0.78 µg/mL | M.I.C. [11]: 1.56 µg/mL | M.I.C. (Escherichia coli K-12; [17]): 0.78 µg/mL | LD50 value (mice): > 1500 mg/kg

3',4'-Dideoxykanamycin B-tri-N-methanesulfonic acid sodium salt [DKB-tri-N-methanesulfonic acid Na salt]
M.I.C. (Mycobacterium 607): 0.78 µg/mL | M.I.C. [1]: 100 µg/mL | M.I.C. (Shigella sonnei JS11746): 1.56 µg/mL | M.I.C. [2]: 0.78 µg/mL | M.I.C. [3]: 0.39 µg/mL | M.I.C. [4]: 100 µg/mL | M.I.C. [5, 14]: > 100 µg/mL | M.I.C. [6]: 0.78 µg/mL | M.I.C. [7]: 0.78 µg/mL | M.I.C. [8, 15]: < 0.2 µg/mL | M.I.C. [9]: 0.78 µg/mL | M.I.C. (Bacillus subtilis PCI219; [16]): 0.2 µg/mL | M.I.C. (Proteus vulgaris OX19): 0.39 µg/mL | M.I.C. [10]: 0.78 µg/mL | M.I.C. [11]: 3.12 µg/mL | M.I.C. (Escherichia coli K-12; [17]): 0.78 µg/mL | LD50 value (mice): > 5000 mg/kg

3',4'-Dideoxykanamycin B-di-N-methanesulfonic acid sodium salt [DKB-di-N-methanesulfonic acid Na salt]
antibacterial potency (Bacillus subtilis): 590 units/mg | M.I.C. (Mycobacterium 607): 0.39 µg/mL | M.I.C. [1]: 50 µg/mL | M.I.C. (Shigella sonnei JS11746): 0.78 µg/mL | M.I.C. [2]: 0.78 µg/mL | M.I.C. [3]: 0.39 µg/mL | M.I.C. [4]: 50 µg/mL | M.I.C. [5, 14]: > 100 µg/mL | M.I.C. [6]: 0.78 µg/mL | M.I.C. [7]: 0.78 µg/mL | M.I.C. [8, 15]: < 0.2 µg/mL | M.I.C. [9]: 0.78 µg/mL | M.I.C. (Bacillus subtilis PCI219; [16]): < 0.2 µg/mL | M.I.C. (Proteus vulgaris OX19): < 0.2 µg/mL | M.I.C. [10]: 0.78 µg/mL | M.I.C. [11]: 1.56 µg/mL | M.I.C. (Escherichia coli K-12; [17]): 0.78 µg/mL | ED50 value [12]: 1.15 mg/kg | acute toxicity relative to that of 3',4'-dideoxykanamycin B itself (mice; intravenous injection into mice, from Table 2): about 1/40 | LD50 value (mice): 4250 mg/kg
